This note sets out measurements from US20050004167A1, “Branched chain amino acid-dependent aminotransferase inhibitors and their use in the treatment of neurodegenerative diseases” (WARNER-LAMBERT COMPANY LLC, priority 2001, published 2005).

“And” between values parts separate entries of the source, which are not always exact repeats. Equal values may be shown once. A value given as a limit tells only on which side of the number the result lay.

For assay [1], the target named is T1, rat BCAT cytosolic form (Rattus norvegicus, UniProt P54690).
T1 construct: made in house; host or cells: E. coli BL21(DE3)
T1 sequence (P54690 1-411): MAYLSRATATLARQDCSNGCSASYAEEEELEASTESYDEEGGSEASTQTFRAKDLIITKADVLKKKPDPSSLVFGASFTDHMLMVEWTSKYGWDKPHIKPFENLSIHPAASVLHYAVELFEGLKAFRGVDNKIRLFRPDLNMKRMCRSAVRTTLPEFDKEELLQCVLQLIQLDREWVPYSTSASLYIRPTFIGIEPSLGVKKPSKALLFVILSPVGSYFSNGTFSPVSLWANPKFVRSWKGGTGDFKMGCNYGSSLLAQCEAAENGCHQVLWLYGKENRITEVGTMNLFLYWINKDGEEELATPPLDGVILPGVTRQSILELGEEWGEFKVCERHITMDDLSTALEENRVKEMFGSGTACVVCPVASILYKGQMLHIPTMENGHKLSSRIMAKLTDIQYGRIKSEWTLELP
The assay is described as follows: In vitro coupled enzyme assay (glutamate dehydrogenase, NADH formation), rat BCATc. The settings on record: recombinant rat BCATc, 37° C., 25 mM phosphate buffer pH 7.8; several values in a cell = repeat determinations; read-out: RrBCATc. The format is biochemical. On the procedure:
In vitro enzyme assay—human Branched Chain Amino Acid Aminotransferase cytosolic form (hBCATc) and mitochondrial form (hBCATm) as well as rat BCAT cytosolic form were assayed at 37° C. in 25 mM phosphate buffer pH 7.8. In addition, 2 mM DTT and 12.5 mM […] were added to the assay mixture. A coupling enzyme assay was used to monitor the production of glutamate. The formation of NADH from NAD+ at […] was followed on a 96-well plate Molecular Devices plate reader.
The following components were used in this coupled assay: 4 mM ADP, 1 mM NAD+, 750 μM L-Leucine, 500 μM α-ketoglutarate, 10 μM pyridoxal phosphate, 1 unit glutamate dehydrogenase, and 1.25 μg of the appropriate BCAT enzyme. Inhibitions by compounds were assayed by adding various concentrations to this coupled assay procedure as a DMSO stock up to a 5% v/v DMSO/buffer ratio.
Enzyme Preparation—humanBCATc and ratBCATc were expressed in BL21(DE3) cells. A growing culture of cells was induced with 1 mM IPTG at room temperature overnight. These cells were harvested by centrifugation at 10,000 g for 20 minutes. The supernatant was discarded, and the cells were stored at −80° C. until needed. The protein was purified by the following method. The cell paste was resuspended in extraction buffer (0.1 M phosphate, pH 8.0, with 0.01 M Tris-HCL and 5 mM TCEP and then lysed on a French Press at 1000 psi. The lysate was centrifuged at 10,000 g for 15 minutes, and the pellet was discarded. The supernatant was loaded onto a Hitrap Chelating column previously charged with 0.1 M NiSO4 and washed with 3 to 4 column volumes of extraction buffer. The column was then washed with 0.01 Tris, pH 7.5, 10% glycerol, 150 mM NaCl, 5 mM TCEP for two column volumes. The column was then further washed with two column volumes of 0.1 M phosphate, pH 6.0, 0.01 M Tris, 10% glycerol and 750 mM NaCl. Finally, the column was washed with two column volumes of the same buffer plus 50 mM imidazole. The BCAT enzyme was then eluted with the same buffer but with 350 mM imidazole. The eluant was then dialyzed overnight against 10 mM phosphate buffer pH 8.0, 10% glycerol, and 5 mM TCEP. The dialyzed protein was then loaded onto a Q-sepharose column and eluted using a salt gradient. Active fractions were collected and further purified on a Superose-12 column to yield pure BCAT protein.

The target in assay [2] is T2, human Branched Chain Amino Acid Aminotransferase cytosolic form (hBCATc) (Homo sapiens, UniProt P54687).
T2 construct: made in house; host or cells: E. coli BL21(DE3)
T2 sequence (P54687 1-386): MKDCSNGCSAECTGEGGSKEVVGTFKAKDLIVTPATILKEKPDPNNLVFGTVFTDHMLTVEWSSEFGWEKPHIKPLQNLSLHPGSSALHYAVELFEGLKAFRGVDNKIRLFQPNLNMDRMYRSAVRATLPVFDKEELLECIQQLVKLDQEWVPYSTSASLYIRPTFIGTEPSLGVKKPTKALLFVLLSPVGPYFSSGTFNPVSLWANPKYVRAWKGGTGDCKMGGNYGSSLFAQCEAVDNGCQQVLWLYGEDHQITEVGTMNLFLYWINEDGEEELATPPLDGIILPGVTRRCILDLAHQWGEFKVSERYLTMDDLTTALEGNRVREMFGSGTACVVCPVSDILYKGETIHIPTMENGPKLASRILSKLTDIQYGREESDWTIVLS
The assay is described as follows: In vitro coupled enzyme assay (glutamate dehydrogenase, NADH formation), human BCATc. The format is biochemical. Conditions: recombinant human BCATc, 37° C., 25 mM phosphate buffer pH 7.8; several values in a cell = repeat determinations; read-out: RhBCATc. A digest of the protocol: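 At 37 °C in 25 mM phosphate pH 7.8 with 2 mM DTT, 1.25 μg His-tag-purified E. coli-expressed BCAT transaminated 750 μM L-leucine with 500 μM α-ketoglutarate and 10 μM PLP. Glutamate was coupled via glutamate dehydrogenase (1 mM NAD+, 4 mM ADP) to NADH formation at 340 nm. Compounds were added in DMSO up to 5% v/v.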

On to `Cc1ccc2oc(C(=O)NNS(=O)(=O)c3ccccc3C(F)(F)F)cc2c1` [Example 79, 2-Benzofurancarboxylic acid, 5-methyl-, 2-[[2-(trifluoromethyl)phenyl]sulfonyl]-hydrazide], for which the IC50 in assay [1] is 0.22 µM; in assay [2], 16.9 µM and 1.81 µM.

For the molecule `Cc1cccc(S(=O)(=O)NNC(=O)c2cc3cc(C)ccc3o2)c1` [Example 80, 2-Benzofurancarboxylic acid, 5-methyl-, 2-([3-methylphenyl)sulfonyl]hydrazide], the IC50 was determined as 0.25 µM in assay [1] and 2.62 µM in assay [2].

Consider `Cc1ccc2oc(C(=O)NNS(=O)(=O)c3ccccc3C)cc2c1` [Example 81, 2-Benzofurancarboxylic acid, 5-methyl-, 2-[2-(methylphenyl)sulfonyl]hydrazide], for which the IC50 stood at 0.31 µM in assay [1] and 1.74 µM in assay [2].

In the case of `Cc1ccc2oc(C(=O)NNS(=O)(=O)c3cccc(Cl)c3C)cc2c1` [Example 82, 2-Benzofurancarboxylic acid, 5-methyl-, 2-[(3-chloro-2-methylphenyl)sulfonyl]-hydrazide], the IC50 in assay [1] was determined as 0.51 µM; in assay [2], 3.28 µM.

On to `Cc1ccc2oc(C(=O)NNS(=O)(=O)c3cccc(Br)c3)cc2c1` [Example 83, 2-Benzofurancarboxylic acid, 5-methyl-, 2-[3-(bromophenyl)sulfonyl]hydrazide], for which the values for the IC50 in assay [1] and in assay [2] were 0.87 µM and 9.66 µM, respectively.

On to `Cc1ccc2oc(C(=O)NNS(=O)(=O)c3cccc(Cl)c3)cc2c1` [Example 84, 2-Benzofurancarboxylic acid, 5-methyl-, 2-[(3-chlorophenyl)sulfonyl]hydrazide], for which the results for the IC50 in assay [1] and in assay [2] were 0.97 µM and 6.13 µM, respectively.

Take `Cc1ccc2oc(C(=O)NNS(=O)(=O)c3ccccc3OC(F)(F)F)cc2c1` [Example 85, 2-Benzofurancarboxylic acid, 5-methyl-, 2-[[2-(trifluoromethoxy)phenyl]-sulfonyl]hydrazide]: the values for the IC50 in assay [1] and in assay [2] were 1.39 µM and 21.2 µM, respectively.

Regarding `Cc1cccc2cc(C(=O)NNS(=O)(=O)c3ccccc3)oc12` [Example 86, 2-Benzofurancarboxylic acid, 7-methyl-, 2-(phenylsulfonyl)hydrazide], the IC50 in assay [1] was found to be 0.24 µM; in assay [2] it was 15.2 µM.

Regarding `Cc1cccc2oc(C(=O)NNS(=O)(=O)c3ccccc3)cc12` [Example 87, 2-Benzofurancarboxylic acid, 4-methyl-, 2-(phenylsulfonyl)hydrazide], the figures for the IC50 in assay [1] and in assay [2] were 1.16 µM and 41.1 µM, respectively.

As for `Cc1c(C(=O)NNS(=O)(=O)c2ccccc2)oc2ccccc12` [Example 88, 2-Benzofurancarboxylic acid, 3-methyl-, 2-(phenylsulfonyl)hydrazide], the IC50 in assay [1] was determined as 4 µM; in assay [2] it was 40 µM.

Regarding `Cc1ccc2oc(C(=O)NNS(=O)(=O)c3ccccc3)c(C)c2c1` [Example 89, 2-Benzofurancarboxylic acid, 3,5-dimethyl-, 2-(phenylsulfonyl)hydrazide], the IC50 in assay [1] and in assay [2] was greater than 100 µM each time.

As for `Cc1c(C(=O)NNS(=O)(=O)c2ccccc2)oc2ccc(Cl)cc12` [Example 90, 2-Benzofurancarboxylic acid, 5-chloro-3-methyl, 2-(phenylsulfonyl)hydrazide], the IC50 in assay [1] and in assay [2] was greater than 100 µM each time.

In the case of `Nc1ccc2oc(C(=O)NNS(=O)(=O)c3ccccc3)cc2c1` [Example 91, 2-Benzofurancarboxylic acid, 5-amino-, 2-(phenylsulfonyl)hydrazide], the IC50 in assay [1] was determined as 0.11 µM; in assay [2] it was 19.6 µM.

Regarding `O=C(NNS(=O)(=O)c1ccccc1F)c1ccc2oc3ccccc3c2c1` [Example 92, 2-Dibenzofurancarboxylic acid, 2-[(2-fluorophenyl)sulfonyl]hydrazide], the IC50 in assay [1] is 1.1 µM; in assay [2] it was 12.1 µM.

Turning to `O=C(NNS(=O)(=O)c1c(F)cccc1F)c1ccc2oc3ccccc3c2c1` [Example 93, 2-Dibenzofurancarboxylic acid, 2-(2,6-difluorophenylsulfonyl)hydrazide], the IC50 in assay [1] came to 5.9 µM; in assay [2], 63.5 µM.

On to `O=C(NNS(=O)(=O)c1ccccc1Br)c1ccc2oc3ccccc3c2c1` [Example 94, 2-Dibenzofurancarboxylic acid, 2-[(2-bromophenyl)sulfonyl]hydrazide], for which the IC50 in assay [1] was 0.72 µM; in assay [2] it was 5.5 µM.

For `O=C(NNS(=O)(=O)c1cccc(Br)c1)c1ccc2oc3ccccc3c2c1` [Example 95, 2-Dibenzofurancarboxylic acid, 2-[(3-bromophenyl)sulfonyl]hydrazide], the IC50 in assay [1] came to 0.3 µM; in assay [2] it was 2.9 µM.

As to `Cc1ccc(S(=O)(=O)NNC(=O)c2ccc3oc4ccccc4c3c2)cc1[N+](=O)[O-]` [Example 96, 2-Dibenzofurancarboxylic acid, 2-[(4-methyl-3-nitrophenyl)sulfonyl]hydrazide], the IC50 in assay [1] came to 36.3 µM; in assay [2], 51.6 µM.

As to `O=C(NNS(=O)(=O)c1cc(C(F)(F)F)ccc1Cl)c1ccc2oc3ccccc3c2c1` [Example 97], the IC50 turned out to be 36.4 µM in assay [1] and 67.5 µM in assay [2].

As for `O=C(NNS(=O)(=O)c1ccccc1OC(F)(F)F)c1ccc2oc3ccccc3c2c1` [Example 98, 2-Dibenzofurancarboxylic acid, 2-[(2-trifluoromethoxyphenyl)sulfonyl]hydrazide], the IC50 was determined as 0.65 µM in assay [1] and 2.8 µM in assay [2].

As for `O=C(NNS(=O)(=O)c1ccc(Br)cc1OC(F)(F)F)c1ccc2oc3ccccc3c2c1` [Example 99, 2-Dibenzofurancarboxylic acid, 2-[(4-bromo-2-trifluoromethoxyphenyl)sulfonyl]-hydrazide], the values for the IC50 in assay [1] and in assay [2] were 35.1 µM and 46.3 µM, respectively.

Consider `O=C(NNS(=O)(=O)c1ccccc1[N+](=O)[O-])c1ccc2oc3ccccc3c2c1` [Example 100, 2-Dibenzofurancarboxylic acid, 2-[(2-nitrophenyl)sulfonyl]hydrazide], for which the IC50 in assay [1] is 4 µM; in assay [2] it was 28.1 µM.

Turning to `O=C(O)c1ccc(S(=O)(=O)NNC(=O)c2ccc3oc4ccccc4c3c2)cc1` [Example 101, 2-Dibenzofurancarboxylic acid, 2-[(4-carboxyphenyl)sulfonyl]hydrazide], the figures for the IC50 in assay [1] and in assay [2] were 22 µM and 48.1 µM, respectively.

For the molecule `COc1cccc2cc(C(=O)NNS(=O)(=O)c3cccc(Cl)c3)oc12` [Example 102, 2-Benzofurancarboxylic acid, 7-methoxy-, 2-[(3-chlorophenyl)sulfonyl]hydrazide], the IC50 in assay [1] amounted to 0.37 µM; in assay [2] it was 6 µM.
